Experimental data published in patent US12091405B2, “Substituted pyrazole compounds as indoleamine 2,3-dioxygenase inhibitors” (Merck Sharp & Dohme LLC, priority 2018, dated 2024).

These molecules were tested against IDO1 (Homo sapiens, UniProt P14902) (assay: IDO1 Cellular Assay in HeLa Cells Stimulated with IFNγ). Settings: IFNγ 100 ng/mL, 300 uM L-tryptophan, about 48 hours, fluorescence readout, read-out: IDO1 HELA Cell Assay, IC50.
Format: cell-based
Method: Biological Assays IDO1 Cellular Assay in HeLa Cells Stimulated with IFNγ
HeLa cells were cultured in complete HeLa culture medium (90% EMEM, 10% heat-inactivated fetal bovine serum) and expanded to about 1×10^9 cells. The cells were then collected and frozen down at 1×10^7 cells/vial in 1 mL frozen medium (90% complete HeLa culture medium, 10% DMSO).
Compounds to be tested were serially diluted in ten 3-fold steps in DMSO starting from 10 mM DMSO stocks in Echo low volume plate(s). Compound dilutions or DMSO alone were then dispensed from the dilution plate(s) into Greiner black 384-well assay plate(s) (catalog #781086, 50 nL/well) using an Echo 550 acoustic liquid handler (Labcyte).
Frozen HeLa cells were thawed and transferred into HeLa assay medium (99% complete HeLa culture medium, 1% Pen/Strep) with 20 mL medium/vial of cells. The cells were spun down at 250 g in a table top centrifuge for 5 min and suspended in same volume of HeLa assay medium. The cells were then counted and adjusted to a density of 2×10^5 cells/mL in HeLa assay medium. Sterile L-tryptophan were added to the cells with final concentration of 300 uM L-tryptophan. A small aliquot (2 mL/plate) of HeLa cells were set aside and were not treated with IFNγ, to serve as the Max-E control.
HeLa cells with and without IFNγ were dispensed to the respective wells of 384-well assay plates containing the compounds. The plates were incubated for about 48 hours at a 37° C., 5% CO2 incubator. Afterwards, 12 μL of 0.5 M methyl isonipecotate in dimethyl sulfoxide were added into each well and the plates were sealed and incubated at 37° C. without CO2 overnight. The plates were centrifuged for 1 min at 200×g. The resulting fluorescence was measured in a Spectramax plate reader (Molecular Devices) with a 400 nm excitation filter and a 510 nm emission filter.
The fluorescence intensity of each well was corrected for the background observed in wells with non-IFNγ-treated cells and was expressed as a fraction of the intensity observed in wells of IFNγ-treated cells and DMSO only. Potencies were calculated by linear least squares fit to the four parameter logistic IC50 equation.
Compounds disclosed herein generally have IC50 of about 0.1 nM to about 20,000 nM, or more specifically, about 1 nM to about 10,000 nM, or more specifically, about 5 nM to about 5,000 nM, or more specifically, about 10 nM to about 1,000 nM, or still more specifically, about 10 nM to about 500 nM.

Sequence of IDO1 (P14902 whole entry): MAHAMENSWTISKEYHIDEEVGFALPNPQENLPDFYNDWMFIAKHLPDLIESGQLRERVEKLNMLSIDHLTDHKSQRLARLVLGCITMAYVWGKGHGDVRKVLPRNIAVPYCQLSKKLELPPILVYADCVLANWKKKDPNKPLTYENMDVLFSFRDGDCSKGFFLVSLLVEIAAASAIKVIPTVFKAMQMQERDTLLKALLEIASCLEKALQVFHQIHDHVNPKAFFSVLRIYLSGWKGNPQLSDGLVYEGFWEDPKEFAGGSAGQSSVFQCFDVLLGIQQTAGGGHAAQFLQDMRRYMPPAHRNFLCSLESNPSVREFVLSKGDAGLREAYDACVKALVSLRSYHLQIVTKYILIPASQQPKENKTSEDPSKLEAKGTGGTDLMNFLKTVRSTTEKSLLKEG

SMILES | IC50
C[C@@H]1CN(C(=O)c2nn(CC(=O)N3CCC(c4ccccc4C4CC4)CC3)c3c2CCC3)C[C@H](C)O1 [Example 113, 1-[4-(2-cyclopropylphenyl)piperidin-1-yl]-2-{3-[(2R,6S)-2,6-dimethylmorpholine-4-carbonyl]-5,6-dihydrocyclopenta[c]pyrazol-1(4H)-yl}ethan-1-one] | 42.6 nM
Cc1cccc(C2CCN(C(=O)Cn3nc(C(=O)N4CCC(O)CC4)c4c3CCC4)CC2)c1C [Example 41, 1-(4-(2,3-dimethylphenyl)piperidin-1-yl)-2-(3-(4-hydroxypiperidine-1-carbonyl)-5,6-dihydrocyclopenta[c]pyrazol-1(4H)-yl)ethan-1-one] | 3.6 nM
Cc1ccc(F)cc1C1CCN(C(=O)Cn2nc(C(=O)N3C[C@@H](C)O[C@@H](C)C3)c3c2CCC3)CC1 [Example 98, 2-{3-[(2R,6S)-2,6-dimethylmorpholine-4-carbonyl]-5,6-dihydrocyclopenta[c]pyrazol-1(4H)-yl}-1-[4-(5-fluoro-2-methylphenyl)piperidin-1-yl]ethan-1-one] | 27.1 nM
C[C@@H]1CN(C(=O)c2nn(CC(=O)N3CCC(c4cc(F)c(Cl)c(F)c4)CC3)c3c2CCC3)C[C@H](C)O1 [Example 101, 1-[4-(4-chloro-3,5-difluorophenyl)piperidin-1-yl]-2-{3-[(2R,6S)-2,6-dimethylmorpholine-4-carbonyl]-5,6-dihydrocyclopenta[c]pyrazol-1(4H)-yl}ethan-1-one] | 27.9 nM
Cc1c(C2CCN(C(=O)Cn3nc(C(=O)N4CCC(O)(CF)CC4)c4c3C[C@H]3C[C@@H]43)CC2)cccc1C(F)(F)F [Example 1, 2-((3bR,4aR)-3-(4-(fluoromethyl)-4-hydroxypiperidine-1-carbonyl)-3b,4,4a,5-tetrahydro-1H-cyclopropa[3,4]cyclopenta[1,2-c]pyrazol-1-yl)-1-(4-(2-methyl-3-(trifluoromethyl)phenyl)piperidin-1-yl)ethanone] | 0.8 nM
C[C@@H]1CN(C(=O)c2nn(CC(=O)N3CCC(c4ccc(C(F)(F)F)c(F)c4)CC3)c3c2CCC3)C[C@H](C)O1 [Example 161, 2-{3-[(2R,6S)-2,6-dimethylmorpholine-4-carbonyl]-5,6-dihydrocyclopenta[c]pyrazol-1(4H)-yl}-1-{4-[3-fluoro-4-(trifluoromethyl)phenyl]piperidin-1-yl}ethan-1-one] | 165 nM
O=C(Cn1nc(C(=O)N2CCC(O)CC2)c2c1CCC2)N1CCC(c2cccc3c2CC3)CC1 [Example 16, 1-(4-(bicyclo[4.2.0]octa-1(6),2,4-trien-2-yl)piperidin-1-yl)-2-(3-(4-hydroxypiperidine-1-carbonyl)-5,6-dihydrocyclopenta[c]pyrazol-1(4H)-yl)ethanone] | 25 nM
Cc1ccnc(C2CCN(C(=O)Cn3nc(C(=O)N4C[C@@H](C)O[C@@H](C)C4)c4c3CCC4)CC2)c1C [Example 80, 2-(3-(cis-2,6-dimethylmorpholine-4-carbonyl)-5,6-dihydrocyclopenta[c]pyrazol-1(4H)-yl)-1-(4-(3,4-dimethylpyridin-2-yl)piperidin-1-yl)ethan-1-one] | 74.2 nM
Cc1ccc(C2CCN(C(=O)Cn3nc(C(=O)N4C[C@@H](C)O[C@@H](C)C4)c4c3CCC4)CC2)cc1C [Example 89, 2-{3-[(2R,6S)-2,6-dimethylmorpholine-4-carbonyl]-5,6-dihydrocyclopenta[c]pyrazol-1(4H)-yl}-1-[4-(3,4-dimethylphenyl)piperidin-1-yl]ethan-1-one] | 8.8 nM
COc1c(F)cc(C2CCN(C(=O)Cn3nc(C(=O)N4C[C@@H](C)O[C@@H](C)C4)c4c3CCC4)CC2)cc1F [Example 134, 1-[4-(3,5-difluoro-4-methoxyphenyl)piperidin-1-yl]-2-{3-[(2R,6S)-2,6-dimethylmorpholine-4-carbonyl]-5,6-dihydrocyclopenta[c]pyrazol-1(4H)-yl}ethan-1-one] | 82.1 nM
Cc1c(C2CCN(C(=O)Cn3nc(C(=O)N4CCC(O)CC4)c4c3C[C@H]3C[C@@H]43)CC2)cccc1C(F)(F)F [Example 2, 2-((3bR,4aR)-3-(4-hydroxypiperidine-1-carbonyl)-3b,4,4a,5-tetrahydro-1H-cyclopropa[3,4]cyclopenta[1,2-c]pyrazol-1-yl)-1-(4-(2-methyl-3-(trifluoromethyl)phenyl)piperidin-1-yl) ethanone] | 1.6 nM
C[C@@H]1CN(C(=O)c2nn(CC(=O)N3CCC(c4cc(F)c(F)cc4F)CC3)c3c2CCC3)C[C@H](C)O1 [Example 149, 2-{3-[(2R,6S)-2,6-dimethylmorpholine-4-carbonyl]-5,6-dihydrocyclopenta[c]pyrazol-1(4H)-yl}-1-[4-(2,4,5-trifluorophenyl)piperidin-1-yl]ethan-1-one] | 120 nM
Cc1cccc(C2CCN(C(=O)Cn3nc(C(=O)N4CC[C@@H](O)[C@@H](F)C4)c4c3C[C@@H]3C[C@H]43)CC2)c1C [Example 27, 1-[4-(2,3-dimethylphenyl)piperidin-1-yl]-2-{(3bS,4aS)-3-[(3S,4R)-3-fluoro-4-hydroxypiperidine-1-carbonyl]-3b,4,4a,5-tetrahydro-1H-cyclopropa[3,4]cyclopenta[1,2-c]pyrazol-1-yl}ethan-1-one] | 36.8 nM
Cc1c(Cl)cc(Cl)cc1C1CCN(C(=O)Cn2nc(C(=O)N3C[C@@H](C)O[C@@H](C)C3)c3c2CCC3)CC1 [Example 122, 1-[4-(3,5-dichloro-2-methylphenyl)piperidin-1-yl]-2-{3-[(2R,6S)-2,6-dimethylmorpholine-4-carbonyl]-5,6-dihydrocyclopenta[c]pyrazol-1(4H)-yl}ethan-1-one] | 54.5 nM
Cc1cc(F)ccc1C1CCN(C(=O)Cn2nc(C(=O)N3CC[C@H](O)[C@H](F)C3)c3c2CCC3)CC1 [Example 56, 1-(4-(4-fluoro-2-methylphenyl)piperidin-1-yl)-2-(3-((3R,4S)-3-fluoro-4-hydroxypiperidine-1-carbonyl)-5,6-dihydrocyclopenta[c]pyrazol-1(4H)-yl)ethanone] | 199 nM
C[C@@H]1CN(C(=O)c2nn(CC(=O)N3CCC(C4CCCCC4)CC3)c3c2CCC3)C[C@H](C)O1 [Example 30, 1-(4-cyclohexylpiperidin-1-yl)-2-{3-[(2R,6S)-2,6-dimethylmorpholine-4-carbonyl]-5,6-dihydrocyclopenta[c]pyrazol-1(4H)-yl}ethan-1-one] | 299 nM
C[C@@H]1CN(C(=O)c2nn(CC(=O)N3CCC(c4ccc(C(F)F)c(F)c4)CC3)c3c2CCC3)C[C@H](C)O1 [Example 140, 1-{4-[4-(difluoromethyl)-3-fluorophenyl]piperidin-1-yl}-2-{3-[(2R,6S)-2,6-dimethylmorpholine-4-carbonyl]-5,6-dihydrocyclopenta[c]pyrazol-1(4H)-yl}ethan-1-one] | 89 nM
COc1cccc(C2CCN(C(=O)Cn3nc(C(=O)N4C[C@@H](C)O[C@@H](C)C4)c4c3CCC4)CC2)c1 [Example 108, 2-{3-[(2R,6S)-2,6-dimethylmorpholine-4-carbonyl]-5,6-dihydrocyclopenta[c]pyrazol-1(4H)-yl}-1-[4-(3-methoxyphenyl)piperidin-1-yl]ethan-1-one] | 37.9 nM
Cc1cccc(C2CCN(C(=O)Cn3nc(C(=O)N4CC[C@](C)(O)C4)c4c3CCC4)CC2)c1C [Example 49, (S)-1-(4-(2,3-dimethylphenyl)piperidin-1-yl)-2-(3-(3-hydroxy-3-methylpyrrolidine-1-carbonyl)-5,6-dihydrocyclopenta[c]pyrazol-1(4H)-yl)ethan-1-one] | 29.8 nM
COc1c(F)cc(F)cc1C1CCN(C(=O)Cn2nc(C(=O)N3C[C@@H](C)O[C@@H](C)C3)c3c2CCC3)CC1 [Example 110, 1-[4-(3,5-difluoro-2-methoxyphenyl)piperidin-1-yl]-2-{3-[(2R,6S)-2,6-dimethylmorpholine-4-carbonyl]-5,6-dihydrocyclopenta[c]pyrazol-1(4H)-yl}ethan-1-one] | 39.3 nM
Cc1ccc(C2CCN(C(=O)Cn3nc(C(=O)N4C[C@@H](C)O[C@@H](C)C4)c4c3CCC4)CC2)cc1 [Example 127, 2-{3-[(2R,6S)-2,6-dimethylmorpholine-4-carbonyl]-5,6-dihydrocyclopenta[c]pyrazol-1(4H)-yl}-1-[4-(4-methylphenyl)piperidin-1-yl]ethan-1-one] | 61.1 nM
C[C@@H]1CN(C(=O)c2nn(CC(=O)N3CCC(c4cccc(F)c4)CC3)c3c2CCC3)C[C@H](C)O1 [Example 130, 2-{3-[(2R,6S)-2,6-dimethylmorpholine-4-carbonyl]-5,6-dihydrocyclopenta[c]pyrazol-1(4H)-yl}-1-[4-(3-fluorophenyl)piperidin-1-yl]ethan-1-one] | 66.1 nM
